{
  "source": "paper PMC11125333",
  "about": "“Self-Immolative Domino Dendrimers as Anticancer-Drug Delivery Systems: A Review” (Pharmaceutics, 2024)",
  "origin": "cited, not measured here",
  "set-up": "method as in PMID 25924099",
  "conditions": "UV irradiation at 365 nm",
  "data": [
    {"compound": "CC[C@@]1(O)C(=O)OCc2c1cc1n(c2=O)Cc2cc3ccccc3nc2-1", "note": "[CAMP, camptothecin]", "values": [
      {"measurement": "effect of UV irradiation on cytotoxicity / cell-killing efficacy", "value": "did not increase"}
    ]}
  ]
}
